How the values were obtained:
[1] = molecular target: 5-hydroxytryptamine receptor 2A (Homo sapiens, UniProt P28223); assay: Antagonist activity at 5HTR2A (unknown origin) assessed as inhibition of 5-HTR2A
[2] = molecular target: hERG (KCNH2) (Homo sapiens, UniProt Q12809); assay: Inhibition of hERG at 10 uM relative to control; type: toxicity
[3] = Drug concentration in male ICR mouse brain at 10 mg/kg, ip measured after 1 hr; type: ADME, organism-based; settings: read-out: Ct
[4] = Drug concentration in male ICR mouse plasma at 10 mg/kg, ip measured after 1 hr; type: ADME, organism-based
[5] = Microsomal stability in mouse liver microsomes assessed as parent compound remaining measured after 30 mins; type: ADME, Microsome; settings: read-out: Stability
[6] = Microsomal stability in rat liver microsomes assessed as parent compound remaining measured after 30 mins; type: ADME, Microsome; settings: read-out: Stability
[7] = Microsomal stability in human liver microsomes assessed as parent compound remaining measured after 30 mins; type: ADME, Microsome; settings: read-out: Stability
[8] = Drug concentration in male ICR mouse brain at 10 mg/kg, ip measured after 3 hr; type: ADME, organism-based; settings: read-out: Ct
[9] = Drug concentration in male ICR mouse plasma at 10 mg/kg, ip measured after 3 hr; type: ADME, organism-based
[10] = molecular target: T1, CYP1A2 (Homo sapiens, UniProt P05177); assay: Inhibition of CYP1A2 (unknown origin) at 10 uM relative to control; type: ADME
T1 sequence (P05177 whole entry): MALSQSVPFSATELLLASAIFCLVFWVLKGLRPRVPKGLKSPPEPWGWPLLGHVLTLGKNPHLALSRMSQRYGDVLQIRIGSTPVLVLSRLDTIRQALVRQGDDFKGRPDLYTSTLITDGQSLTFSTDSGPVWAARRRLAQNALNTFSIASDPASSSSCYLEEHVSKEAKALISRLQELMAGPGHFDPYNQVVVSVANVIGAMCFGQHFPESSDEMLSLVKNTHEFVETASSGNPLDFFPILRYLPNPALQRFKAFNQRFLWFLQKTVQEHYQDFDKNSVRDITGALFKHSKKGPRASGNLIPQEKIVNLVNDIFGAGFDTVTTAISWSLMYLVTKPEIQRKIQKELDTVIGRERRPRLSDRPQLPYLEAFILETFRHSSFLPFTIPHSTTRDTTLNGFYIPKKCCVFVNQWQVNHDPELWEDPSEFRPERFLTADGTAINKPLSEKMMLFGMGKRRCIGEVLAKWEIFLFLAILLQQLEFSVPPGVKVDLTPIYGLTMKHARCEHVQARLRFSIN

[11] = molecular target: CYP2C9 (Homo sapiens, UniProt P11712); assay: Inhibition of CYP2C9 (unknown origin) at 10 uM relative to control; type: ADME
[12] = molecular target: CYP2C19 (Homo sapiens, UniProt P33261); assay: Inhibition of CYP2C19 (unknown origin) at 10 uM relative to control; type: ADME
[13] = molecular target: CYP2D6 (Homo sapiens, UniProt P10635); assay: Inhibition of CYP2D6 (unknown origin) at 10 uM relative to control; type: ADME
[14] = molecular target: CYP3A4 (Homo sapiens, UniProt P08684); assay: Inhibition of CYP3A4 (unknown origin) at 10 uM relative to control; type: ADME
[15] = molecular target: T2, 5-hydroxytryptamine receptor 2B (Homo sapiens, UniProt P41595); assay: Inhibition of 5HTR2B (unknown origin) at 1 uM relative to control
[16] = molecular target: T2, 5-hydroxytryptamine receptor 2B; assay: Inhibition of 5HTR2B (unknown origin)
[17] = molecular target: T3, 5-hydroxytryptamine receptor 2C (Homo sapiens) (UniProt P28335); assay: Inhibition of 5HTR2C (unknown origin) at 1 uM relative to control
T3 sequence (whole entry): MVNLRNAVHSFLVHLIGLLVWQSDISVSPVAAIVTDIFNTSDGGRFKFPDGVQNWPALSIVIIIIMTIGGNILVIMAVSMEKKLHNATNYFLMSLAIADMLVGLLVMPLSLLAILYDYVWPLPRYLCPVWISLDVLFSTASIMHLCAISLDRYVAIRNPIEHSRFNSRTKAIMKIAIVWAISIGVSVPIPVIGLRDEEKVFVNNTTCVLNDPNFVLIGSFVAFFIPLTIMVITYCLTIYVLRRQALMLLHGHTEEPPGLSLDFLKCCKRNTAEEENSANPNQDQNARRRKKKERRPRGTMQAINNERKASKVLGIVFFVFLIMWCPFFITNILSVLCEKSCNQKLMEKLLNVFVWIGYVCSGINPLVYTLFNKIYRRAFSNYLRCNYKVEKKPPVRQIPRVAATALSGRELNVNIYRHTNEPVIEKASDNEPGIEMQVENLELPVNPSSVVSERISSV

[18] = molecular target: 5-hydroxytryptamine receptor 5A (Homo sapiens) (UniProt P47898); assay: Inhibition of 5HTR5A (unknown origin) at 1 uM relative to control
[19] = molecular target: 5-hydroxytryptamine receptor 6 (Homo sapiens) (UniProt P50406); assay: Inhibition of 5HTR6 (unknown origin) at 1 uM relative to control
[20] = molecular target: 5-hydroxytryptamine receptor 7 (Homo sapiens) (UniProt P34969); assay: Inhibition of 5HTR7 (unknown origin) at 1 uM relative to control
[21] = Half life in male mouse at 2 mg/kg, iv; type: ADME, organism-based; settings: in vivo
[22] = AUCt in male mouse at 2 mg/kg, iv; type: ADME, organism-based; settings: in vivo
[23] = AUCinfinity in male mouse at 2 mg/kg, iv; type: ADME, organism-based; settings: in vivo
[24] = Clearance in male mouse at 2 mg/kg, iv; type: ADME, organism-based; settings: in vivo
[25] = Volume of distribution at steady state in male mouse at 2 mg/kg, iv; type: ADME, organism-based; settings: in vivo, read-out: Vdss
[26] = tested on: HCT-116; assay: Antiproliferative activity against human HCT-116 cells assessed as inhibition of cell proliferation incubated for 24 to 48 hrs by CCK-8 assay; type: functional, cell-based; settings: dose 1.5-12.5 µM, time 24-48 hrs
[27] = tested on: HCT-116; assay: Antiproliferative activity against human HCT-116 cells assessed as inhibition of cell proliferation at 1.5 to 12.5 uM by CCK-8 assay; type: functional, cell-based; settings: dose 1.5-12.5 µM, time […]
[28] = tested on: SW-620; assay: Antiproliferative activity against human SW620 cells assessed as inhibition of cell proliferation incubated for 24 to 48 hrs by CCK-8 assay; type: functional, cell-based; settings: dose 1.5-12.5 µM, time 24-48 hrs
[29] = tested on: SW-620; assay: Antiproliferative activity against human SW620 cells assessed as inhibition of cell proliferation at 1.5 to 12.5 uM by CCK-8 assay; type: functional, cell-based; settings: dose 1.5-12.5 µM, time 24-48 hrs

T2 sequence (P41595 whole entry): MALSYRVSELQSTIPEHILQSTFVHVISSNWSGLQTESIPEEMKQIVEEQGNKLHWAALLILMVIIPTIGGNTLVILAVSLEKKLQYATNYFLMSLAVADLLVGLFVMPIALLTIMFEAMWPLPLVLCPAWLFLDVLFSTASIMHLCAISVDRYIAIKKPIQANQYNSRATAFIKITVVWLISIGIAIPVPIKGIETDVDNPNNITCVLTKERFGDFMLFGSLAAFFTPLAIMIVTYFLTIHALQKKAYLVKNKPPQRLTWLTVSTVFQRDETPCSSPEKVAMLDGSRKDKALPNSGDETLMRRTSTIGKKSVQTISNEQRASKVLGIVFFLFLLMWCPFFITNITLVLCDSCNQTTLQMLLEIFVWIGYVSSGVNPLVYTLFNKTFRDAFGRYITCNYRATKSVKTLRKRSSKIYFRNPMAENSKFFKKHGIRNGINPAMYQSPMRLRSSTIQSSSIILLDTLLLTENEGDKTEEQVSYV
hERG (KCNH2), sequence (Q12809 whole entry): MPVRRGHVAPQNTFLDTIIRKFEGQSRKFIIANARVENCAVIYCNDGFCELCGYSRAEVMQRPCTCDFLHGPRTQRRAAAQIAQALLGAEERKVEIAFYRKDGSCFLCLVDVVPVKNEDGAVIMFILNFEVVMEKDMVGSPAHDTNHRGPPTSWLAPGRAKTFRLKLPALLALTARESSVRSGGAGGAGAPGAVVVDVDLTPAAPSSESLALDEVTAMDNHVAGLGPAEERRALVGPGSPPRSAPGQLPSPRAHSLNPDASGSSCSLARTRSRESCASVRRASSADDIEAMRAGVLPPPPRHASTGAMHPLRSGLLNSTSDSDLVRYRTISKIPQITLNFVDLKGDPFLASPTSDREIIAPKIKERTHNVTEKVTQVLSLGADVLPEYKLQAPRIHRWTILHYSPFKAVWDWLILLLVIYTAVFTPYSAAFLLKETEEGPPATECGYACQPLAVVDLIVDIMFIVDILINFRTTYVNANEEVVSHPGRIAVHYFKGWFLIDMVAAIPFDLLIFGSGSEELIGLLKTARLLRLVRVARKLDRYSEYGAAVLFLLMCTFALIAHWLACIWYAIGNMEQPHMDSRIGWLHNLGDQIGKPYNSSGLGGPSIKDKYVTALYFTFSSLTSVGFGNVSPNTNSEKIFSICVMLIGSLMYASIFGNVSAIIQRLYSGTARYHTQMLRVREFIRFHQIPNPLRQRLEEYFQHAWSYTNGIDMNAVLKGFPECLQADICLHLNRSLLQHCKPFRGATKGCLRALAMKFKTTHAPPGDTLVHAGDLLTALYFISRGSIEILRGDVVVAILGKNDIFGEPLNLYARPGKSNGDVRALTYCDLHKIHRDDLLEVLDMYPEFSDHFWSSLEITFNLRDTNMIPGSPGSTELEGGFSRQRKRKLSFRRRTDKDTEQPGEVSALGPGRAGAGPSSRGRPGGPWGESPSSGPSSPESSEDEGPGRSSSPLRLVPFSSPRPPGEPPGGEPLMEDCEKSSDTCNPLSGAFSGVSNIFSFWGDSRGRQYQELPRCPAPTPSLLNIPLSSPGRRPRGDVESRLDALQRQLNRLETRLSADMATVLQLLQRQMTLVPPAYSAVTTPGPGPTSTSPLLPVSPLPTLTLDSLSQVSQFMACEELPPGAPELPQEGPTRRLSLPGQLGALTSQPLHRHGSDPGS
5-hydroxytryptamine receptor 7 (Homo sapiens), sequence (P34969 whole entry): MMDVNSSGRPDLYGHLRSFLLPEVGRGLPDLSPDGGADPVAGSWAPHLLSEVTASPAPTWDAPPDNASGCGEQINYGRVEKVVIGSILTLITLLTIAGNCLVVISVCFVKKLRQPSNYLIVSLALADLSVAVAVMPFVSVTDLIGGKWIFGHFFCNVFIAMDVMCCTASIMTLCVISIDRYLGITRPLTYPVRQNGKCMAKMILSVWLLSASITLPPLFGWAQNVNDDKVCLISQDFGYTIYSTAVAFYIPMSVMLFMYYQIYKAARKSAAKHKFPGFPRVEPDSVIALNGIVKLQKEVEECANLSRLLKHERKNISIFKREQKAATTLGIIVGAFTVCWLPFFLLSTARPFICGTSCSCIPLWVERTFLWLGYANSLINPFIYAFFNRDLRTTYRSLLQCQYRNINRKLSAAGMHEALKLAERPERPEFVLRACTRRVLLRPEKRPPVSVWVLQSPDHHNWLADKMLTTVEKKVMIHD
CYP2C19, sequence (P33261 whole entry): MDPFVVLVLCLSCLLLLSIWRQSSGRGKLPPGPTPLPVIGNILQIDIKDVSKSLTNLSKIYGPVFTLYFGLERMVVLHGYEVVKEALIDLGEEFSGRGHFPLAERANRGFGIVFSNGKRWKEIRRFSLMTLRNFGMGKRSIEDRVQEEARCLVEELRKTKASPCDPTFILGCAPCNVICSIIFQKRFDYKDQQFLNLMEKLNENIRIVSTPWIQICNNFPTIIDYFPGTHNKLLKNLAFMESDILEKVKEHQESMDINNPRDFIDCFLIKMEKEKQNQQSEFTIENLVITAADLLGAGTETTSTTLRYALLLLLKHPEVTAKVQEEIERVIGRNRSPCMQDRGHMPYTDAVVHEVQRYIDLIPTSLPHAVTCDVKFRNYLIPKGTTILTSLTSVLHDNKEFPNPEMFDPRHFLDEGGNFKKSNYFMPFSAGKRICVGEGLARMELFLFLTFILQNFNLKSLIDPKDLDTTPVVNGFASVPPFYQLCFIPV
5-hydroxytryptamine receptor 6 (Homo sapiens), sequence (P50406 whole entry): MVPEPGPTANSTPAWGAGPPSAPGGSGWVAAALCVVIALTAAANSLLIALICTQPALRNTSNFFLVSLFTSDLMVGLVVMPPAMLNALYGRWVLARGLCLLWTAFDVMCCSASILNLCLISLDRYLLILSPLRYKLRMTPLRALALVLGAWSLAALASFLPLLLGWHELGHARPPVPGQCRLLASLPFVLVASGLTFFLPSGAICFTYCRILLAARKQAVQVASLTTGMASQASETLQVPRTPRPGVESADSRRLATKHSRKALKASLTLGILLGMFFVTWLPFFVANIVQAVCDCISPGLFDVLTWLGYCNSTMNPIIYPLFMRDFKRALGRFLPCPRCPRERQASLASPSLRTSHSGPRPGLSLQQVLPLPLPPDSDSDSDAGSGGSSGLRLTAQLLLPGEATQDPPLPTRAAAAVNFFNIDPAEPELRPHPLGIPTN
CYP2C9, sequence (P11712 whole entry): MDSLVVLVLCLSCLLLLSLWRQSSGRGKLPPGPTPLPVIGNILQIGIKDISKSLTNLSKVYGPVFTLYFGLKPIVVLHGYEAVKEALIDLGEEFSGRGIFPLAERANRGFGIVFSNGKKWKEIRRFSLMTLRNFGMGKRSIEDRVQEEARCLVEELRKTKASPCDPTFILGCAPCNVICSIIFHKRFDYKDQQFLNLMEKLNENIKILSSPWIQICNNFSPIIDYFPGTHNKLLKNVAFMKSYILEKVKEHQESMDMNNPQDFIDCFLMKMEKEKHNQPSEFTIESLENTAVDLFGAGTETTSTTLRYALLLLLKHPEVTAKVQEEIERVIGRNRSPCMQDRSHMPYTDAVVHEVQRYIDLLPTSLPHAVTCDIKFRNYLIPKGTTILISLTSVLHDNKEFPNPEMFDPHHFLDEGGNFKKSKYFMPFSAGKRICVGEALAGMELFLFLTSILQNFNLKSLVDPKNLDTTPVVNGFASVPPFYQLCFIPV
CYP2D6, sequence (P10635 whole entry): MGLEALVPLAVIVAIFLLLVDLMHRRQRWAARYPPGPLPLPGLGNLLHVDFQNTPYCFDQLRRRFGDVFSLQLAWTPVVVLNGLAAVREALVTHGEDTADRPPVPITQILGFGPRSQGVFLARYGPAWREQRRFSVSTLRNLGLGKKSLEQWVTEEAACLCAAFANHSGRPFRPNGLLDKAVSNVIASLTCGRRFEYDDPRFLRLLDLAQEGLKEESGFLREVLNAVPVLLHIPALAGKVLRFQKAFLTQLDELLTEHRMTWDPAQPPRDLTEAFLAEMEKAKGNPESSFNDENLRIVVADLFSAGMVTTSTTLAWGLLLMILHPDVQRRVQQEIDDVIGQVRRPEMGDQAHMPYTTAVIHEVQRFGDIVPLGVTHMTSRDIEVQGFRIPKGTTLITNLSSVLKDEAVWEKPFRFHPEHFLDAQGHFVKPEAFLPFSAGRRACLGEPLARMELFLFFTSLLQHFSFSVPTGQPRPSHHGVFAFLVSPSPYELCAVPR
5-hydroxytryptamine receptor 5A (Homo sapiens), sequence (P47898 whole entry): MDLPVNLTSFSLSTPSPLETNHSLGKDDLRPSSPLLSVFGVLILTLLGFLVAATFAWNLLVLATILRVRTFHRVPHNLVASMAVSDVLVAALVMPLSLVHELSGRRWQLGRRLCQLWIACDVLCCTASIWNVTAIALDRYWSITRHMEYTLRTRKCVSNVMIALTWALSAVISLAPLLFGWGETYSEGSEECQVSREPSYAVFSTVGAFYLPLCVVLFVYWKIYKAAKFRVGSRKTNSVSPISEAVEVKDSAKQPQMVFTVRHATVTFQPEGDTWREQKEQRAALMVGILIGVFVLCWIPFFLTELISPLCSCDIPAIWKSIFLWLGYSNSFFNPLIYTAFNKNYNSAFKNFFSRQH
5-hydroxytryptamine receptor 2A, sequence (P28223 whole entry): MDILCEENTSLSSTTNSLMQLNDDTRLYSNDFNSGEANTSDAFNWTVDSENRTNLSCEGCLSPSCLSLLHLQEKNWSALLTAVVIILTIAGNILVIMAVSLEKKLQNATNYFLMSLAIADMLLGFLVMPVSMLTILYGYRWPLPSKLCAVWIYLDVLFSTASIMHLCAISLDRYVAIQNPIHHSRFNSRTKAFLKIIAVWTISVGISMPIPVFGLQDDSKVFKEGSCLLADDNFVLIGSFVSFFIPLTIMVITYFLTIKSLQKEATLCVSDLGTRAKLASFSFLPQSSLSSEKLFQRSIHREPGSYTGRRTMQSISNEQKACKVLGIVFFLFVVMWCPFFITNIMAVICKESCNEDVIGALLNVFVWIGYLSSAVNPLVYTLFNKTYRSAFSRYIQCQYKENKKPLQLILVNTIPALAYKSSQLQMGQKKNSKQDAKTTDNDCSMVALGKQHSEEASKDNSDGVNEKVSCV

Question: With Cl.Cl.O=C(NCc1ccc(OCC(O)CN2CCN(c3noc4cc(F)ccc34)CC2)cc1)N(Cc1ccc(F)cc1)C1CCNCC1 (centres undefined) as the molecule, how does the IC50 [1] read?
Answer: The IC50 was 42.8 nM.

Question: What about the inhibition at 10 µM [2] of the same molecule?
Answer: Its inhibition at 10 µM is 52%.

Question: And the concentration at 1 h [3]?
Answer: Its concentration at 1 h is less than 0.5 ng/g.

Question: What about the concentration at 1 h [4] of the same molecule?
Answer: The concentration at 1 h was 463 ng/mL.

Question: What about the remaining at 0.5 h [5] of the same molecule?
Answer: The remaining at 0.5 h was greater than 99%.

Question: And the remaining at 0.5 h [6]?
Answer: The remaining at 0.5 h was 95.3%.

Question: What about the remaining at 0.5 h [7] of the same molecule?
Answer: The remaining at 0.5 h was greater than 99%.

Question: And the concentration at 3 h [8]?
Answer: Its concentration at 3 h is less than 0.5 ng/g.

Question: And the concentration at 3 h [9]?
Answer: The concentration at 3 h was 271 ng/mL.

Question: And the inhibition at 10 µM [10]?
Answer: The inhibition at 10 µM was 4.6%.

Question: What about the inhibition at 10 µM [11] of the same molecule?
Answer: Its inhibition at 10 µM is 5%.

Question: And the inhibition at 10 µM [12]?
Answer: The inhibition at 10 µM was 21%.

Question: And the inhibition at 10 µM [13]?
Answer: Its inhibition at 10 µM is 55.1%.

Question: What about the inhibition at 10 µM [14] of the same molecule?
Answer: Its inhibition at 10 µM is 9.6%.

Question: And the inhibition [15]?
Answer: Its inhibition is 84.8%.

Question: What about the IC50 [16] of the same molecule?
Answer: The IC50 was 621 nM.

Question: And the inhibition [17]?
Answer: Its inhibition is 44%.

Question: And the inhibition [18]?
Answer: Its inhibition is 10%.

Question: What about the inhibition [19] of the same molecule?
Answer: The inhibition was -5%.

Question: And the inhibition [20]?
Answer: The inhibition was 102%.

Question: And the half-life [21]?
Answer: The half-life was 834 min.

Question: And the AUC(0-t) [22]?
Answer: Its AUC(0-t) is 300 ng·h/mL.

Question: What about the AUC(0-inf) [23] of the same molecule?
Answer: The AUC(0-inf) was 500 ng·h/mL.

Question: What about the clearance [24] of the same molecule?
Answer: Its clearance is 67.7 mL/min/kg.

Question: What about the Vd [25] of the same molecule?
Answer: The Vd was 83.9 L/kg.

Question: And the Activity [26]?
Answer: The Activity was “Dose-dependent-effect”.

Question: What about the Activity [27] of the same molecule?
Answer: The Activity was “Time-dependent-effect”.

Question: What about the Activity [28] of the same molecule?
Answer: Its Activity is “Dose-dependent-effect”.

Question: What about the Activity [29] of the same molecule?
Answer: The Activity was “Time-dependent-effect”.

From ChEMBL document CHEMBL6096690, “Synthesis and Biological Evaluation of Peripheral HTR2A Antagonists for Colorectal Cancer” (J Med Chem, 2025)
